From US10517889B2, “Modulators of SMAD7 expression” (Ionis Pharmaceuticals, Inc., priority 2017, dated 2019) come the findings set out here.

For this data set, the system named is human SMAD7 mRNA. As to the kind of experiment: Antisense inhibition of human SMAD7 mRNA expression in Hep3B cells by 5-10-5 MOE gapmers, single concentration, electroporation, RT-PCR (Example 1, Study 1 and 2). The format is cell-based. The procedure: Antisense oligonucleotides were designed to target human SMAD7 mRNA and were tested for their effects on SMAD7 mRNA expression in vitro. Cultured Hep3B cells at a density of 20,000 cells per well were transfected using electroporation with antisense oligonucleotide ION 483663 (a 5-10-5 MOE gapmer), the sequence of which overlaps with ION 28453 (a 4-10-4 MOE gapmer) was included in these assays for comparison. ION 28453 has been previously disclosed in U.S. Pat. No. 6,159,697). After a treatment period of approximately 24 hours, RNA was isolated from the cells and SMAD7 mRNA levels were measured by quantitative real-time PCR. Primer probe set RTS5062 (forward sequence […], designated herein as SEQ ID NO: 11; reverse sequence […], designated herein as SEQ ID NO: 12; probe sequence […], designated herein as SEQ ID NO: 13) was used to measure human SMAD7 mRNA levels. SMAD7 mRNA levels were adjusted according to total RNA content, as measured by RIBOGREEN®. Results are presented as percent inhibition of SMAD7 mRNA expression, relative to untreated control cells.
The newly designed chimeric antisense oligonucleotides in the Tables below were designed as 5-10-5 MOE gapmers. The gapmers are 20 nucleosides in length, wherein the central gap segment comprises of ten 2′-deoxynucleosides and is flanked by wing segments on the 5′ direction and the 3′ direction comprising five nucleosides each. Each nucleoside in the 5′ wing segment and each nucleoside in the 3′ wing segment has a 2′-MOE modification. The internucleoside linkages throughout each gapmer are phosphorothioate (P═S) linkages. All cytosine residues throughout each gapmer are 5-methylcytosines.
“Start site” indicates the 5′-most nucleoside to which the gapmer is targeted in the human gene sequence. “Stop site” indicates the 3′-most nucleoside to which the gapmer is targeted human gene sequence.
Cultured Hep3B cells at a density of 20,000 cells per well were transfected using electroporation with 5,000 nM antisense oligonucleotide.
Cultured Hep3B cells at a density of 20,000 cells per well were transfected using electroporation with 15,000 nM antisense oligonucleotide. The antisense oligonucleotides were tested in a series of experiments that had similar culture conditions as described below.
Some of the oligonucleotides presented were complementary to SMAD7 mRNA sequences RefSeqNo. NM_001190821.1 (designated herein as SEQ ID NO: 3) or RefSeqNo. NM_001190822.1 (designated herein as SEQ ID NO: 4), and are presented in a separate table shown below.

Where [1] appears, read: Study 2, electroporation with 15,000 nM antisense oligonucleotide, 5-10-5 MOE gapmers targeting SEQ ID NO: 1 and 2.
[2] abbreviates: electroporation, 15,000 nM antisense oligonucleotide (Study 2), 5-10-5 MOE gapmers targeting SEQ ID NO: 1 and 2.
The mark [3] stands for this setting: electroporation with 15,000 nM antisense oligonucleotide (Study 2), 5-10-5 MOE gapmers targeting SEQ ID NO: 1 and 2.
The mark [4] stands for this setting: electroporation, 15,000 nM, approximately 24 hours, relative to untreated control cells, gapmers targeting SEQ ID NO: 1 and 2.

Strand notation (5' to 3'): a small letter for the sugar, then the base; units joined by * are phosphorothioate-linked, units joined directly phosphodiester-linked; [ ] holds rarer units or linkages, { } end groups; capitals alone tell only the bases. e = 2'-O-(2-methoxyethyl) (MOE); [5mC] = 5-methylcytosine; d = 2'-deoxy (DNA)

As for “771630 (antisense eT*eG*e[5mC]*eT*eA*dA*dG*d[5mC]*dA*dT*dG*dT*d[5mC]*d[5mC]*d[5mC]*eT*e[5mC]*e[5mC]*e[5mC]*eA) [compound 771630]”, the “% inhibition of SMAD7 mRNA expression” value under setting [1] amounted to 37%.

Consider “771545 (antisense e[5mC]*e[5mC]*eA*eA*eA*dA*dA*dA*dA*d[5mC]*d[5mC]*d[5mC]*d[5mC]*d[5mC]*dA*eA*e[5mC]*eA*eA*eT) [compound 771545]”, for which, under setting [2], the “% inhibition of SMAD7 mRNA expression” value was determined as 21%.

On to “771753 (antisense eG*eT*e[5mC]*e[5mC]*eA*dT*dG*dA*dA*d[5mC]*d[5mC]*dA*d[5mC]*dA*dA*e[5mC]*eT*e[5mC]*eA*eT) [compound 771753]”, for which, under setting [2], the “% inhibition of SMAD7 mRNA expression” value worked out at 50%.

Take “771649 (antisense eA*eA*eG*eT*eA*dT*d[5mC]*dA*dT*dA*d[5mC]*dG*dA*dG*dT*eG*eT*eA*eT*eG) [compound 771649]”: the “% inhibition of SMAD7 mRNA expression” value under setting [3] was 0%.

With “771713 (antisense eT*eG*e[5mC]*e[5mC]*eT*dA*d[5mC]*dA*d[5mC]*dA*d[5mC]*dA*dA*dA*dA*eA*eG*e[5mC]*e[5mC]*eA) [compound 771713]”, the “% inhibition of SMAD7 mRNA expression” value under setting [2] came out at 15%.

Take “771913 (antisense eA*eA*eA*eA*eA*dA*dG*d[5mC]*d[5mC]*dA*dG*dT*dA*dA*dA*eG*eA*e[5mC]*eA*eT) [compound 771913]”: the “% inhibition of SMAD7 mRNA expression” value under setting [2] was 11%.

With “771954 (antisense e[5mC]*eT*eA*eG*eA*dA*dT*dG*dA*dA*dG*dA*d[5mC]*dA*d[5mC]*e[5mC]*e[5mC]*eG*e[5mC]*e[5mC]) [compound 771954]”, under setting [2], the “% inhibition of SMAD7 mRNA expression” value turned out to be 0%.

Take “771348 (antisense eG*eG*e[5mC]*e[5mC]*eA*d[5mC]*dG*dA*d[5mC]*dA*dG*dT*dA*dT*d[5mC]*eT*eG*eG*eG*e[5mC]) [compound 771348]”: under setting [2], the “% inhibition of SMAD7 mRNA expression” value is 42%.

Take “771638 (antisense eT*eA*eG*eG*eA*dT*dG*dG*dT*dA*d[5mC]*d[5mC]*dT*dT*dG*eG*eG*eT*eT*eA) [compound 771638]”: the “% inhibition of SMAD7 mRNA expression” value under setting [1] was 41%.

Turning to “771533 (antisense e[5mC]*eA*eA*eA*e[5mC]*dG*dA*dG*dG*dA*d[5mC]*dG*dA*dG*dA*eA*eG*eA*eA*eG) [compound 771533]”, the “% inhibition of SMAD7 mRNA expression” value under setting [4] was determined as 2%.

Consider “771647 (antisense eG*eA*eG*eT*eG*dT*dA*dT*dG*dA*dG*dT*dT*dG*dT*eA*eG*eA*eA*eG) [compound 771647]”, for which, under setting [1], the “% inhibition of SMAD7 mRNA expression” value worked out at 6%.

On to “771483 (antisense eA*e[5mC]*eG*eG*e[5mC]*dT*dG*d[5mC]*dT*dG*d[5mC]*dA*dT*dA*dA*eA*e[5mC]*eT*e[5mC]*eG) [compound 771483]”, for which the “% inhibition of SMAD7 mRNA expression” value under setting [2] came out at 22%.

As for “771349 (antisense eA*e[5mC]*eT*e[5mC]*e[5mC]*dA*dA*dA*dG*dG*dT*dG*d[5mC]*dG*d[5mC]*eG*eG*e[5mC]*e[5mC]*eA) [compound 771349]”, under setting [2], the “% inhibition of SMAD7 mRNA expression” value was 26%.

For the substance “771760 (antisense eA*eT*e[5mC]*eT*eT*dA*d[5mC]*d[5mC]*dT*dG*dA*dA*dA*dG*d[5mC]*e[5mC]*e[5mC]*e[5mC]*e[5mC]*e[5mC]) [compound 771760]”, the “% Inhibition of SMAD7 mRNA” value under setting [3] came out at 25%. Under setting [2], the “% inhibition of SMAD7 mRNA expression” value was 3%.

As to “771597 (antisense eG*eA*eA*eT*eA*dA*dG*dA*d[5mC]*dA*dA*dG*dG*dA*dT*eG*eA*eA*eA*eA) [compound 771597]”, the “% inhibition of SMAD7 mRNA expression” value under setting [4] came out at 0%.

Regarding “771857 (antisense e[5mC]*eG*eT*e[5mC]*eT*dT*dA*dT*dT*dG*dT*dT*dT*dT*dT*eG*eT*eT*e[5mC]*e[5mC]) [compound 771857]”, the “% inhibition of SMAD7 mRNA expression” value under setting [2] stood at 29%.

Take “771607 (antisense eG*eG*eT*eG*eA*dG*d[5mC]*dA*dA*dT*dA*d[5mC]*dT*dG*dT*eG*eA*eG*eG*eG) [compound 771607]”: under setting [1], the “% inhibition of SMAD7 mRNA expression” value was 34%.

As for “771662 (antisense eA*eT*eG*eA*eG*dA*dA*dT*dG*d[5mC]*dT*dT*d[5mC]*dT*d[5mC]*eT*eT*eG*eT*eT) [compound 771662]”, the “% inhibition of SMAD7 mRNA expression” value under setting [1] is reported as 29%.

Consider “771497 (antisense eG*eA*eA*eG*eA*dT*dG*dA*d[5mC]*d[5mC]*dT*d[5mC]*dT*dA*dG*e[5mC]*e[5mC]*eA*eG*e[5mC]) [compound 771497]”, for which the “% Inhibition of SMAD7 mRNA” value under setting [3] is recorded as 25%. Besides, under setting [2], the “% inhibition of SMAD7 mRNA expression” value came to 0%.

For the substance “771566 (antisense eG*eA*e[5mC]*eA*e[5mC]*dA*dA*dA*dA*d[5mC]*dA*dA*dA*dG*dA*eG*e[5mC]*eA*e[5mC]*eG) [compound 771566]”, the “% inhibition of SMAD7 mRNA expression” value under setting [1] is on record as 28%.

Take “771817 (antisense eG*eG*eA*eA*eT*dT*dA*dT*dG*dA*d[5mC]*dA*d[5mC]*dA*dG*eT*eA*eA*e[5mC]*eA) [compound 771817]”: under setting [2], the “% inhibition of SMAD7 mRNA expression” value was 19%.

On to “771415 (eT*eG*e[5mC]*eG*e[5mC]*dT*d[5mC]*dG*dG*d[5mC]*dT*dG*dT*d[5mC]*d[5mC]*eG*eT*e[5mC]*eG*e[5mC]; antisense) [compound 771415]”, for which the “% Inhibition” value under setting [1] was 36%.

With “771720 (antisense e[5mC]*eA*eG*eG*e[5mC]*dA*dG*dA*dG*d[5mC]*dT*dA*dT*dG*d[5mC]*eT*eT*e[5mC]*eA*eA) [compound 771720]”, the “% Inhibition of SMAD7 mRNA” value under setting [3] is listed as 37%. Under setting [2], the “% inhibition of SMAD7 mRNA expression” value stood at 20%.

For the substance “771404 (antisense e[5mC]*eG*eA*eA*e[5mC]*dA*dT*dG*dA*d[5mC]*d[5mC]*dT*d[5mC]*d[5mC]*dG*e[5mC]*eA*e[5mC]*eA*e[5mC]) [compound 771404]”, the “% inhibition of SMAD7 mRNA expression” value under setting [2] is recorded as 51%.

Turning to “771888 (antisense eT*e[5mC]*eG*e[5mC]*e[5mC]*dA*dT*dG*dG*dA*dG*dA*dA*dT*dG*eT*eA*eA*eT*eT) [compound 771888]”, the “% Inhibition of SMAD7 mRNA” value under setting [3] was 21%. Also, the “% inhibition of SMAD7 mRNA expression” value under setting [2] came to 0%.

Take “771880 (antisense eT*e[5mC]*e[5mC]*e[5mC]*eT*dG*dG*dT*dT*dT*dT*dG*d[5mC]*dA*dG*eG*eT*eG*eG*eT) [compound 771880]”: the “% Inhibition of SMAD7 mRNA” value under setting [3] is recorded as 41%. Also, under setting [2], the “% inhibition of SMAD7 mRNA expression” value is 29%.

“771864 (antisense eA*eG*eA*e[5mC]*eA*dA*dA*dG*dA*dT*d[5mC]*dA*d[5mC]*dA*dG*eA*eT*e[5mC]*eA*e[5mC]) [compound 771864]”: the “% Inhibition of SMAD7 mRNA” value under setting [3] is listed as 27%. In addition, the “% inhibition of SMAD7 mRNA expression” value under setting [2] is reported as 0%.

With “771813 (antisense eT*e[5mC]*eT*eT*eG*dT*d[5mC]*dT*dG*dG*d[5mC]*d[5mC]*dG*dG*d[5mC]*eA*eG*eA*eG*e[5mC]) [compound 771813]”, the “% inhibition of SMAD7 mRNA expression” value under setting [4] was determined as 38%.

For “771723 (antisense e[5mC]*e[5mC]*eA*eA*eG*dG*dT*dT*dA*d[5mC]*dA*dT*dA*d[5mC]*dA*eA*e[5mC]*e[5mC]*eT*eG) [compound 771723]”, under setting [1], the “% Inhibition” value is listed as 44%. Also, the “% inhibition of SMAD7 mRNA expression” value (electroporation, 5,000 nM, approximately 24 hours, relative to untreated control cells, gapmers targeting SEQ ID NO: 1 and 2) was determined as 0%.

On to “771708 (antisense eG*eG*eA*eT*eA*dA*dA*dA*dG*dG*dA*dA*dA*dG*dG*eA*eG*eT*eT*eT) [compound 771708]”, for which the “% Inhibition” value under setting [1] worked out at 0%.

As for “771688 (antisense e[5mC]*eG*eT*eT*eT*dA*dA*dT*dG*dG*dA*dA*d[5mC]*dA*dT*eA*eA*eA*e[5mC]*eT) [compound 771688]”, under setting [3], the “% Inhibition of SMAD7 mRNA” value is recorded as 13% and the “% inhibition of SMAD7 mRNA expression” value is 0%.

As for “771430 (e[5mC]*eG*e[5mC]*e[5mC]*e[5mC]*dG*d[5mC]*dG*dG*d[5mC]*dT*dG*dG*d[5mC]*dG*eG*eG*eT*eG*eG; antisense) [compound 771430]”, the “% inhibition of SMAD7 mRNA expression” value under setting [4] stood at 40%.

On to “771943 (antisense eG*eT*eA*eT*eT*dT*dG*dT*dT*dA*dA*d[5mC]*dA*dA*dA*eA*eA*eT*eG*eG) [compound 771943]”, for which, under setting [1], the “% Inhibition” value is 0%.

In the case of “771645 (antisense eG*eT*eT*eG*eT*dA*dG*dA*dA*dG*dA*dA*dA*dT*dG*eA*eA*eA*eG*eA) [compound 771645]”, the “% inhibition of SMAD7 mRNA expression” value under setting [4] was 38%.
